Assay results from publication PMC7570620, “Synthesis and Evaluation of the Antitumor Activity of Novel 1-(4-Substituted phenyl)-2-ethyl Imidazole Apoptosis Inducers In Vitro” (Molecules, 2020).

Tests used:
SGC-7901 = experiment: MTT cell viability assay, SGC-7901; assay type: cell-based; settings: Homo sapiens, 24 h incubation, mean ± SD, n = 4
Experimental: (§1) The synthesized compounds were subjected to a cytotoxicity assay using the MTT method, as described previously. IC50 is defined as the drug concentration causing a 50% reduction in cell numbers compared to the untreated control. For screening, we evaluated the effects of the compounds on the growth of three cancer cell lines (A549, SGC-7901, and HeLa). In addition, their toxicities were tested using one normal cell line (L-02). The results are the averages of four separate measurements. MTX and 5-FU served as positive controls.
(§2) The three cancer cell lines namely the human lung cancer cell line (A549), human cervical cancer cell line (HeLa), human gastric carcinoma cell line (SGC-7901), and normal liver cell line (L-02) were acquired from the American Type Culture Collection (Manassas, VA, USA). A549 and SGC-7901 cells were routinely cultured in RPMI-1640. In addition, HeLa and L-02 cells were routinely cultured in DMEM. Media was supplemented with 10% fetal bovine serum (FBS). Cells were maintained at subconfluency at 37 °C in humidified air containing 5% CO2. The cells were monitored daily and maintained at 80% cell density. All compounds tested were dissolved in DMSO and then diluted by the culture medium before the treatment of cultured cells.
(§3) Cytotoxicity of the tested samples was measured against each cell line using the 3-(4,5-dimethylthiazol-2-yl)-2,5-diphenyltetrazolium bromide (MTT) cell viability assay (Maher et al., 2019). Cancer cells (A549, SGC-7901, and HeLa) and L-02 normal cells were harvested during the logarithmic growth phase. All cells were seeded in 96-well plates at 10^4 cells/well and were treated with 5-fluorouracil (5-FU), methotrexate (MTX), and the tested samples for 24 h at final concentrations of […]. Next, 20 µL of freshly prepared MTT (Solarbio) solution (5 mg/mL of MTT in PBS) was added to each well, and the cells were cultured for 4 h at 37 °C. The supernatants were removed and resolved with 100 µL of DMSO, and the cells were shocked for 10 min at 37 °C. The optical density of the samples was measured at 490 nm using a microplate luminometer. Cell viability was expressed as the percentage change in absorbance compared to the control values.

L-02 = experiment: MTT cytotoxicity in normal cell line L-02; assay type: cell-based; settings: for IC50: Homo sapiens, L02, normal cell line L-02, MTT; for Selectivity Index A549: IC50 in normal cells (L-02)/IC50 in tumor cells (A549); for Selectivity Index HeLa: IC50 in normal cells (L-02)/IC50 in tumor cells (HeLa); for Selectivity Index SGC-7901: IC50 in normal cells (L-02)/IC50 in tumor cells (SGC-7901)
Experimental: as §1
The lack of selectivity between normal and cancer cells is one of the primary limitations of antitumor drugs. We evaluated the cytotoxicity of compounds 4c, 4e–4i, 4l, 4m, and 4q in the normal cell line L-02 to determine the selectivity index (defined as the ratio of cytotoxicity in L-02 cells compared to that in cancer cells). […] Compound 4q yielded satisfactory SI values in HeLa and SGC-7901 cells but an unsatisfactory SI value in A549 cells. […] Compound 4f was selected for the subsequent biological studies.
as §2, §3

HeLa cells [1] = experiment: Western blot of apoptotic proteins; assay type: cell-based, human
Experimental: The results of the Western blot analysis were expressed as the relative ratio of the specific compound band compared with the internal reference.
For performing Western blot analysis, the cells were washed with PBS and lysis buffer (P0013B, Beyotime). After incubation on ice for 30 min, the homogenate was centrifuged at 12,000g for 15 min at 4 °C, and the supernatant was used for protein analysis. Protein concentration was determined using the BCA protein assay (P0012S, Beyotime, Beijing, China). Sodium dodecyl sulfate-polyacrylamide gel electrophoresis was performed using the Bio-Rad Mini-Protean Tetra System (Bio-Rad, Hercules, CA, US). The proteins on the gel were then transferred onto polyvinylidene fluoride membranes (PVDF, Millipore, Beijing, China) for 2 h at 200 mA and blocked for 2 h with 5% skim milk at room temperature to prevent nonspecific binding. The blots were probed with the indicated primary antibodies followed by horseradish peroxidase (HRP)-conjugated goat anti-rabbit or anti-mouse IgG (Beyotime). Rabbit anti-Bcl-2 and mouse anti-actin antibodies were purchased from Beyotime. Rabbit anti-Bax, anti-Caspass-3, and anti-PARP monoclonal antibodies were purchased from Cell Signaling Technology (Danvers, MA, USA).
Figure 4 Apoptotic effects of 4f on HeLa cells. (A) The effect of compound 4f on the expression levels of Bax, Bcl-2, Caspase 3, and cle-PARP in HeLa cells was analyzed using Western blotting. (B) Densitometric quantification. * p < 0.05, ** p < 0.01, and *** p < 0.001 relative to the control group (0 h). Bcl-2, B-cell lymphoma 2; Bax, […]; cle-PARP, cleaved poly ADP-ribose polymerase.

HeLa cells [2] = experiment: Hoechst/PI double staining apoptosis analysis; assay type: cell-based, human; settings: 24 h, 4f 3.24 µM (legend: 4 µM), 5-FU 18 µM
Experimental: Apoptosis and necrosis were analyzed by Hoechst/propidium iodide (CA1120, Solarbio, Beijing, China) double staining. HeLa cells were seeded in six-well plates (10^4 cells/well) and treated with IC50 concentrations of 5-FU or one of the tested derivatives for 0, 3, 6, 12, and 24 h. Next, the cells were collected and washed once in phosphate-buffered saline (PBS). The cells were then resuspended in 195 µL of binding buffer, and dual staining was performed with 3 µL of Hoechst and 3 µL of PI. Next, the cells were incubated for 15 min at room temperature in the dark. Apoptotic cells were analyzed using the EVOS FL Auto Cell Imaging System (Thermo Fisher Scientific, Shanghai, China).
(A) HeLa cells were treated with 4 µM of 4f or 18 µM of 5-FU for 0, 3, 6, 12, or 24 h and were stained using the Hoechst/PI solution. Morphology and fluorescence intensity were examined under a fluorescence microscope (magnification: ×200). (B) Quantification of the percentages of apoptotic cells. Error bars indicate the mean ± SD of three independent experiments (* p < 0.05, ** p < 0.01, and *** p < 0.001 indicate significant differences).

A549 = experiment: MTT cell viability assay, A549; assay type: cell-based; settings: Homo sapiens, 24 h incubation, mean ± SD, n = 4
Experimental: as §1, §2, §3

HeLa = experiment: MTT cell viability assay, HeLa; assay type: cell-based; settings: Homo sapiens, 24 h incubation, mean ± SD, n = 4
Experimental: as §1, §2, §3

[3] = system: lung and liver cancer cells; experiment: Preliminary in vitro antitumor activity of lead compounds I and II; assay type: cell-based; settings: preliminary work of this paper; Figure 2
Source text: To identify new apoptosis-inducing candidates, we attempted to modify the structure of imidazole and its analogs. Imidazole and the related azole moiety are significant pharmacophores in various clinical drugs including antitumor agents. […] The antitumor potency of Tanshinone-IIA has been enhanced by the introduction of an imidazole moiety (Figure 1, TA12) in order to block cancer cell invasion and metastasis in vivo [16]. […] Previously, we reported a series of imidazole-fused quinoline compound I and its open-chain analogue compound II, 2-ethyl-1-phenyl-1H-imidazole (Figure 2). […] We speculated that its flexible structure caused this difference in antitumor activity. However, both their antitumor activities were not strong enough as a potent antitumor agent. So, using compound II as a lead, we designed and synthesized several structurally modified derivatives. The effects of LogP and hydrogen bonds on bioavailability were considered, and several aliphatic and aromatic amines were selected and linked to the 1-phenyl imidazole scaffold using a succinyl group as a cross-linker. This approach yielded several novel imidazole derivatives with cLogP values ranging from 1.99 to 4.34.
Figure 2 Title compounds design. Yellow: pharmacophore and Blue: aliphatic/aromatic amine. TEXT PRINTED IN THE PICTURE: I: 300 uM< IC50 < 500 uM | II: 100 uM < IC50 < 300 uM

SMILES | IC50 (SGC-7901) [µM] | IC50 (L-02) [µM] | Selectivity Index A549 (L-02) | Selectivity Index HeLa (L-02) | Selectivity Index SGC-7901 (L-02) | Selectivity index, tolerance of normal L-02 cells versus tumor cells (L-02; range over the three tumor cell lines) | expression of Bcl-2 (HeLa cells [1]; 3.24 µM, time-dependent 3–24 h) | expression of the Bax protein (HeLa cells [1]; 3.24 µM, time-dependent 3–24 h) | Caspase-3 expression increase (HeLa cells [1]; 24 h after treatment, 4f 3.24 µM) [%] | apoptosis rate (HeLa cells [2]) [%] | IC50 (A549) [µM] | IC50 (HeLa) [µM] | IC50 [3] [µM]
CCc1nccn1-c1ccc(NC(=O)CCC(=O)Nc2ccc(Br)cc2)cc1 [Compound 4f, 1-(4-(3-(4-Br-Phenylcarbamoyl)propionamide)phenyl)-2-ethyl Imidazol] | 5.37 ± 0.85 | 152 ± 10.8 | 23.03 | 46.92 | 28.31 | 23–46 fold | decreased | significantly increased | 134.3 | 68.2 | 6.6 ± 0.36 | 3.24 ± 0.23 | –
O=c1[nH]cc(F)c(=O)[nH]1 [Compound 5-FU, 5-fluorouracil, reference compound] | 16.4 ± 0.88 | 74.7 ± 7.85 | 3.30 | 4.08 | 4.57 | – | – | – | – | 39.6 | 22.6 ± 2.59 | 18.3 ± 1.52 | –
CCc1nccn1-c1ccccc1 [II, 2-ethyl-1-phenyl-1H-imidazole] | – | – | – | – | – | – | – | – | – | – | – | – | 100 to 300
